Experimental data as given in patent publication US20020086061A1 (priority 1999, published 2002).
≈ marks a conversion by molar mass, not a printed value.

Tests used:
[1] = Aqueous solubility of felodipine; format: physicochemical
[2] = pH of excipient and felodipine suspensions before and after heat treatment (Example 11); format: physicochemical
Method: The heat treatment step involved heating the mixture at reflux for 15 minutes and allowing the mixture to stand over night.

Structure (SMILES)	aqueous solubility ([1]; all pH levels)	solubility ([1]; aqueous media) [µg/mL]	pH ([2]; Heat Treatment (reflux 15 minutes, stand over night))	Δ pH ([2]; Heat Treatment versus Initial)	pH ([2]; Initial)
CCOC(=O)C1=C(C)NC(C)=C(C(=O)OC)C1c1cccc(Cl)c1Cl (racemic) [felodipine]	about 0.0001%	0.5 (≈ 1.3 µM)	–	–	–
O=P([O-])([O-])O.[Ca+2] [Dibasic calcium phosphate (DCP), Dibasic calcium phosphate]	–	–	4.07	−3.32	7.39
